Measurements taken from PubChem BioAssay (NCI).
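Step 1: Grow cells in 96-well plates. Step 2: Expose to compound for 48 hours at 5 concentrations. Step 3: Interpolate endpoints linearly; if unreached, use highest concentration. The concentration for 50% growth inhibition is given as GI50. The concentration for full growth arrest is given as TGI.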

Experiments:
Test in all cases: inhibition of tumour cell growth, NCI panel, 48 h
786-0 renal = tested on: 786-0 renal
A498 renal = tested on: A498 renal
A549 NSCLC = tested on: A549 NSCLC
ACHN renal = tested on: ACHN renal
BT-549 breast = tested on: BT-549 breast
COLO 205 colon = tested on: COLO 205 colon
DU-145 prostate = tested on: DU-145 prostate
EKVX NSCLC = tested on: EKVX NSCLC
HCC-2998 colon = tested on: HCC-2998 colon
HCT-116 colon = tested on: HCT-116 colon
HCT-15 colon = tested on: HCT-15 colon
HL-60(TB) leukemia = tested on: HL-60(TB) leukemia
HOP-62 NSCLC = tested on: HOP-62 NSCLC
HT29 colon = tested on: HT29 colon
IGROV1 ovarian = tested on: IGROV1 ovarian
K-562 leukemia = tested on: K-562 leukemia
KM12 colon = tested on: KM12 colon
LOX IMVI melanoma = tested on: LOX IMVI melanoma
M14 melanoma = tested on: M14 melanoma
MALME-3M melanoma = tested on: MALME-3M melanoma
MCF7 breast = tested on: MCF7 breast
MDA-MB-231 breast = tested on: MDA-MB-231 breast
MDA-MB-435 = tested on: MDA-MB-435
MOLT-4 leukemia = tested on: MOLT-4 leukemia
NCI-H226 lung = tested on: NCI-H226 lung
NCI-H23 lung = tested on: NCI-H23 lung
NCI-H460 lung = tested on: NCI-H460 lung
NCI-H522 lung = tested on: NCI-H522 lung
NCI/ADR-RES ovarian = tested on: NCI/ADR-RES ovarian
OVCAR-3 ovarian = tested on: OVCAR-3 ovarian
OVCAR-4 ovarian = tested on: OVCAR-4 ovarian
OVCAR-5 ovarian = tested on: OVCAR-5 ovarian
OVCAR-8 ovarian = tested on: OVCAR-8 ovarian
PC-3 prostate = tested on: PC-3 prostate
RXF 393 renal = tested on: RXF 393 renal
SF-268 CNS = tested on: SF-268 CNS
SF-295 CNS = tested on: SF-295 CNS
SF-539 CNS = tested on: SF-539 CNS
SK-MEL-2 melanoma = tested on: SK-MEL-2 melanoma
SK-MEL-28 melanoma = tested on: SK-MEL-28 melanoma
SK-MEL-5 melanoma = tested on: SK-MEL-5 melanoma
SK-OV-3 ovarian = tested on: SK-OV-3 ovarian
SN12C renal = tested on: SN12C renal
SNB-19 CNS = tested on: SNB-19 CNS
SNB-75 CNS = tested on: SNB-75 CNS
SR leukemia = tested on: SR leukemia
SW-620 colon = tested on: SW-620 colon
T-47D breast = tested on: T-47D breast
TK-10 renal = tested on: TK-10 renal
U251 CNS = tested on: U251 CNS
UACC-257 melanoma = tested on: UACC-257 melanoma
UACC-62 melanoma = tested on: UACC-62 melanoma
UO-31 renal = tested on: UO-31 renal

SMILES: COCC(=O)Oc1cc(-c2ccc(C)cc2C)c(OC(=O)COC)c(-c2ccc(C)cc2C)c1
- GI50 (786-0 renal): 10.7 µM
- TGI (786-0 renal): 48.3 µM
- GI50 (A498 renal): 5.57 µM
- TGI (A498 renal): 19.9 µM
- GI50 (A549 NSCLC): 4.73 µM
- TGI (A549 NSCLC): 29.1 µM
- GI50 (ACHN renal): 9.07 µM
- TGI (ACHN renal): > 100 µM
- GI50 (BT-549 breast): 7.7 µM
- TGI (BT-549 breast): 22.9 µM
- GI50 (COLO 205 colon): 8.76 µM
- TGI (COLO 205 colon): 23.8 µM
- GI50 (DU-145 prostate): 10.3 µM
- TGI (DU-145 prostate): 30.2 µM
- GI50 (EKVX NSCLC): 4.36 µM
- TGI (EKVX NSCLC): 58.9 µM
- GI50 (HCC-2998 colon): 13.5 µM
- TGI (HCC-2998 colon): 28.9 µM
- GI50 (HCT-116 colon): 0.797 µM
- TGI (HCT-116 colon): 14.4 µM
- GI50 (HCT-15 colon): 0.58 µM
- TGI (HCT-15 colon): > 100 µM
- GI50 (HL-60(TB) leukemia): 2.21 µM
- TGI (HL-60(TB) leukemia): 77.4 µM
- GI50 (HOP-62 NSCLC): 11.7 µM
- TGI (HOP-62 NSCLC): 28.1 µM
- GI50 (HT29 colon): 4.02 µM
- TGI (HT29 colon): 21.8 µM
- GI50 (IGROV1 ovarian): 5.56 µM
- TGI (IGROV1 ovarian): 25.3 µM
- GI50 (K-562 leukemia): 3.56 µM
- TGI (K-562 leukemia): > 100 µM
- GI50 (KM12 colon): 4.45 µM
- TGI (KM12 colon): 19.5 µM
- GI50 (LOX IMVI melanoma): 1.12 µM
- TGI (LOX IMVI melanoma): 15.5 µM
- GI50 (M14 melanoma): 7.69 µM
- TGI (M14 melanoma): 21.6 µM
- GI50 (MALME-3M melanoma): 9.2 µM
- TGI (MALME-3M melanoma): 25.5 µM
- GI50 (MCF7 breast): 4.75 µM
- TGI (MCF7 breast): 51.4 µM
- GI50 (MDA-MB-231 breast): 6.03 µM
- TGI (MDA-MB-231 breast): 26.5 µM
- GI50 (MDA-MB-435): 6.62 µM
- TGI (MDA-MB-435): 30.2 µM
- GI50 (MOLT-4 leukemia): 2.96 µM
- TGI (MOLT-4 leukemia): > 100 µM
- GI50 (NCI-H226 lung): 8.59 µM
- TGI (NCI-H226 lung): 46.9 µM
- GI50 (NCI-H23 lung): 5.61 µM
- TGI (NCI-H23 lung): 23.4 µM
- GI50 (NCI-H460 lung): 0.592 µM
- TGI (NCI-H460 lung): 13.7 µM
- GI50 (NCI-H522 lung): 4.07 µM
- TGI (NCI-H522 lung): 18.3 µM
- GI50 (NCI/ADR-RES ovarian): 5.84 µM
- TGI (NCI/ADR-RES ovarian): 55.3 µM
- GI50 (OVCAR-3 ovarian): 3.64 µM
- TGI (OVCAR-3 ovarian): 16.5 µM
- GI50 (OVCAR-4 ovarian): 3.33 µM
- TGI (OVCAR-4 ovarian): 23.6 µM
- GI50 (OVCAR-5 ovarian): 21.7 µM
- TGI (OVCAR-5 ovarian): 61 µM
- GI50 (OVCAR-8 ovarian): 4.51 µM
- TGI (OVCAR-8 ovarian): 90.3 µM
- GI50 (PC-3 prostate): 0.824 µM
- TGI (PC-3 prostate): 35.1 µM
- GI50 (RXF 393 renal): 11.2 µM
- TGI (RXF 393 renal): 46.1 µM
- GI50 (SF-268 CNS): 3.91 µM
- TGI (SF-268 CNS): 23.9 µM
- GI50 (SF-295 CNS): 5.58 µM
- TGI (SF-295 CNS): 29.6 µM
- GI50 (SF-539 CNS): 12 µM
- TGI (SF-539 CNS): 28.8 µM
- GI50 (SK-MEL-2 melanoma): 14.7 µM
- TGI (SK-MEL-2 melanoma): 33.9 µM
- GI50 (SK-MEL-28 melanoma): 11.2 µM
- TGI (SK-MEL-28 melanoma): 23.6 µM
- GI50 (SK-MEL-5 melanoma): 2.04 µM
- TGI (SK-MEL-5 melanoma): 15.7 µM
- GI50 (SK-OV-3 ovarian): 13.2 µM
- TGI (SK-OV-3 ovarian): 61.5 µM
- GI50 (SN12C renal): 9.11 µM
- TGI (SN12C renal): 28.7 µM
- GI50 (SNB-19 CNS): 11.9 µM
- TGI (SNB-19 CNS): 43.6 µM
- GI50 (SNB-75 CNS): 3.22 µM
- TGI (SNB-75 CNS): 20.4 µM
- GI50 (SR leukemia): 1.59 µM
- TGI (SR leukemia): > 100 µM
- GI50 (SW-620 colon): 5.09 µM
- TGI (SW-620 colon): 18.3 µM
- GI50 (T-47D breast): 4.52 µM
- TGI (T-47D breast): 54.9 µM
- GI50 (TK-10 renal): 20.4 µM
- TGI (TK-10 renal): > 100 µM
- GI50 (U251 CNS): 2.02 µM
- TGI (U251 CNS): 23 µM
- GI50 (UACC-257 melanoma): 8.23 µM
- TGI (UACC-257 melanoma): 35.9 µM
- GI50 (UACC-62 melanoma): 3.43 µM
- TGI (UACC-62 melanoma): 31.9 µM
- GI50 (UO-31 renal): 2.47 µM
- TGI (UO-31 renal): 15.5 µM
